In brackets after ≈: the same amount, converted by molar mass. Where two headings read alike, the source gives them in different places.
Assays:
[1] = system: C. dubliniensis MYA 577; assay: AST broth microdilution, high cell density planktonic mode; assay type: cell-based; conditions: Candida dubliniensis, read-out: Minimum inhibitory concentration (MIC)
Procedure: (§1) The in vitro susceptibility of well-characterized wild-type C. albicans strain SC5314, which was provided by Prof. N.A.R. Gow (University of Aberdeen, Aberdeen, UK) was tested against 1280 compounds from the Library of Pharmacologically Active Compounds (LOPAC^1280TM, Sigma–Aldrich, USA). The screen was performed with C. albicans SC5314, and hits were further confirmed with the type strains C. dubliniensis MYA 577, C. glabrata ATCC 2001, C. kusei ATCC 6258, C. palapsilosis ATCC 22019, and C. tropicalis ATCC13803.
(§2) To investigate the antifungal effects of the hit compounds, ASTs were conducted using broth microdilution assays with high cell densities of the planktonic mode, adhesion phase and biofilm mode against Candida strains (C. albicans, C. dubliniensis, C. glabrata, C. kusei, C. palapsilosis, and C. tropicalis). First, high density cell (1 × 10^7 cells/mL) suspensions were added to the RPMI medium containing each hit compound (10–1000 μM) in 96-well plates and incubated at 37°C for 24 h. Next, the 50% minimum inhibitory concentrations (MICs) of high-density Candida planktonic cultures were determined using the CellTiter-Glo luminescent cell viability kit, as described above. The antifungal effects of the hit compounds were also evaluated in the adhesion phase and the biofilm mode, in the same manner as the planktonic mode. Candida biofilms were produced as described previously ([Jin et al., 2004]). In brief, Candida cells were grown on SDA at 37°C for 18 h. A loopful of the yeast culture was then inoculated into yeast nitrogen base (YNB) (Difco, USA) medium supplemented with 50 mM glucose. After overnight broth culture in a rotary shaker at 75 rpm, the cells were washed twice with 20 mL of PBS (pH 7.2, 0.1 M). The yeast cells were re-suspended in YNB supplemented with 100 mM glucose and adjusted to an optical density of 0.38 (1 × 10^7 cells/mL) at 520 nm. This standardized cell suspension was used immediately to form biofilms in the wells of 96-well polystyrene culture plates (Iwaki, Tokyo, Japan). First, the cells were incubated for 90 min at 37°C in a shaker at 75 rpm to allow yeast adherence to the well surface (adhesion phase), before the medium was aspirated and each well was washed once with PBS to remove non-adherent cells. YNB containing 100 mM glucose was then pipetted into each well and the plate was incubated at 37°C in a shaker at 75 rpm for 24 h. Non-adherent cells were removed by pipetting and the biofilms were washed twice with PBS. Following this biofilm growth phase, microscopic examination of the cultures was performed to exclude contamination. These ASTs were repeated on three different occasions.

[2] = system: C. glabrata ATCC 2001; assay: as above; assay type: cell-based; conditions: Nakaseomyces glabratus, read-out: Minimum inhibitory concentration (MIC)
Procedure: as §1, §2

[3] = system: C. kusei ATCC 6258; assay: as above; assay type: cell-based; conditions: 24 h, read-out: Minimum inhibitory concentration (MIC)
Procedure: as §1, §2

[4] = system: C. palapsilosis ATCC 22019; assay: as above; assay type: cell-based; conditions: 24 h, read-out: Minimum inhibitory concentration (MIC)
Procedure: as §1, §2

[5] = system: C. tropicalis ATCC13803; assay: as above; assay type: cell-based; conditions: Candida tropicalis, read-out: Minimum inhibitory concentration (MIC)
Procedure: as §1, §2

[6] = system: human gingival fibroblast (hGF) cells; assay: Cytotoxicity, WST-1 cell counting assay
Procedure: Primary human gingival fibroblast (hGF) cultures were established from discarded healthy gingival tissues after surgery with the informed consent of the donors ([Nikawa et al., 2006]). In brief, the gingival tissue specimens were treated overnight with 0.025% trypsin and 0.02% EDTA at 4°C. After trypsin neutralization, the lamina propria mucosae were separated from the epithelial layer and minced into pieces in a plastic tissue culture dish, and then maintained in Dulbecco’s modified Eagle medium (Nacalai Tesque, Kyoto, Japan) supplemented with 10% FBS, 100 U/mL penicillin, […] and 250 ng/mL amphotericin B (Nacalai Tesque, Kyoto, Japan). After the fibroblasts had migrated out of the tissue, the tissues were removed and the cells were cultured until they reached confluence. The cells were then seeded onto 96-well tissue culture plates (500 cells per well) and the culture medium was exchanged with fresh growth medium containing the hit compounds (0.98–1000 μM). The cells were cultured continuously and the culture medium containing the hit compounds was renewed every other day. The number of cells was evaluated using the WST-1 cell counting assay (Dojindo Laboratories, Kumamoto, Japan), as described previously ([Hamada et al., 2007]). […] All the experiments were performed using three samples for each condition in triplicate.
To evaluate the safety for clinical use, we tested the cytotoxic effects of the hit compounds using human cell cultures. We used hGF cells because of their ubiquitous nature and their widespread use in cytotoxicity testing ([Egusa et al., 2009]; [LaFleur et al., 2011]). The hGF cells were grown in 96-well plates and exposed to increasing doses (two-fold increments) of each hit compound for 4 days. The hGF metabolic activity was measured every other day and used as an indicator of cell viability.

[7] = MYA577, 50% MIC, planktonic mode, 1 × 10^7 cells/mL, 24 h
[8] = ATCC2001, 50% MIC, planktonic mode, 1 × 10^7 cells/mL, 24 h
[9] = 50% MIC, planktonic mode, 1 × 10^7 cells/mL
[10] = ATCC13803, 50% MIC, planktonic mode, 1 × 10^7 cells/mL, 24 h
[11] = hGF cells, 4 days exposure, 50% reduction in cell number, WST-1

Structure (SMILES) | MIC [1, 7] [µM] | MIC [2, 8] [µM] | MIC [3, 9] [µM] | MIC [4, 9] [µM] | MIC [5, 10] [µM] | cytotoxicity to hGF cells (in words) [6] | Cytotoxic concentration ([6]; human, 4 days) [µM] | cytotoxicity to hGF cells (in words) ([6]; hGF cells) | Cytotoxic concentration [6, 11] [µM] | MIC ([1]; MYA577, 24 h) [µM] | MIC ([2]; ATCC2001, 24 h) [µM] | MIC [3] [µM] | MIC [4] [µM] | MIC ([5]; ATCC13803, 24 h) [µM]
Cc1ccc(S(=O)(=O)/C=C/C#N)cc1 [Bay11-7082] | 3.9 (≈ 0.808 µg/mL) | 7.8 (≈ 1.62 µg/mL) | 3.9 (≈ 0.808 µg/mL) | 3.9 (≈ 0.808 µg/mL) | 7.8 (≈ 1.62 µg/mL) | cytotoxic to hGF cells at low concentrations | 7.81 | – | – | – | – | – | – | –
CC(C)(C)c1ccc(S(=O)(=O)/C=C/C#N)cc1 [Bay11-7085] | 3.9 (≈ 0.972 µg/mL) | 3.9 (≈ 0.972 µg/mL) | 3.9 (≈ 0.972 µg/mL) | 3.9 (≈ 0.972 µg/mL) | 3.9 (≈ 0.972 µg/mL) | – | – | cytotoxic to hGF cells at low concentrations | 7.81 | – | – | – | – | –
Cc1c2ccncc2c(C)c2c1[nH]c1ccccc12 [Ellipticine] | 3.9 (≈ 0.961 µg/mL) | 7.8 (≈ 1.92 µg/mL) | 7.8 (≈ 1.92 µg/mL) | 7.8 (≈ 1.92 µg/mL) | 15.6 (≈ 3.84 µg/mL) | – | – | cytotoxic to hGF cells at low concentrations | 1.95 | – | – | – | – | –
C[n+]1cc2c3c(ccc2c2ccc4cc5c(cc4c21)OCO5)OCO3 [Sanguinarine, Sanguinarine chloride hydrate] | – | – | – | – | – | – | – | cytotoxic to hGF cells at low concentrations | 0.73 | < 1 | < 1 | < 1 | < 1 | < 1
